Experimental data reported in ChEMBL document CHEMBL1145159 (J Med Chem, 2005).
Where “and” joins values, the source holds several entries; their conditions need not be identical. Identical values can stand only once. Peptide text beside a SMILES is read from it.

Columns and labels:
[1] = molecular target: T1, Neuronal acetylcholine receptor; alpha3/beta4 (Homo sapiens, UniProt P30926+P32297); assay: Maximal response against Nicotinic acetylcholine receptor alpha3-beta4; type: protein-complex assay
[2] = molecular target: T2, Neuronal acetylcholine receptor; alpha4/beta2 (Homo sapiens, UniProt P17787+P43681); assay: Maximal response against Nicotinic acetylcholine receptor alpha4-beta2; type: protein-complex assay
[3] = molecular target: Neuronal acetylcholine receptor subunit alpha-7 (Rattus norvegicus) (UniProt Q05941); assay: Maximal response against Nicotinic acetylcholine receptor alpha 7
[4] = molecular target: T1, Neuronal acetylcholine receptor; alpha3/beta4; assay: Effective concentration against Nicotinic acetylcholine receptor alpha3-beta4; type: protein-complex assay
[5] = molecular target: T2, Neuronal acetylcholine receptor; alpha4/beta2; assay: Effective concentration against Nicotinic acetylcholine receptor alpha4-beta2; type: protein-complex assay
[6] = molecular target: T3, Neuronal acetylcholine receptor; alpha4/beta4 (Homo sapiens, UniProt P30926+P43681); assay: Effective concentration against Nicotinic acetylcholine receptor alpha4-beta4; type: protein-complex assay
[7] = molecular target: T3, Neuronal acetylcholine receptor; alpha4/beta4; assay: Maximal response against Nicotinic acetylcholine receptor alpha4-beta4; type: protein-complex assay
[8] = molecular target: T1, Neuronal acetylcholine receptor; alpha3/beta4; assay: Inhibitory concentration against Nicotinic acetylcholine receptor alpha3-beta4; type: protein-complex assay
[9] = molecular target: Neuronal acetylcholine receptor; alpha3/beta2 (Homo sapiens, UniProt P17787+P32297); assay: Inhibitory concentration against Nicotinic acetylcholine receptor alpha3-beta2; type: protein-complex assay
[10] = molecular target: T4, Neuronal acetylcholine receptor subunit alpha-7 (Homo sapiens, UniProt P36544); assay: Inhibitory concentration against Nicotinic acetylcholine receptor alpha 7
[11] = molecular target: Neuronal acetylcholine receptor; alpha2/beta4 (Homo sapiens, UniProt P30926+Q15822); assay: Maximal response against Nicotinic acetylcholine receptor alpha2-beta4; type: protein-complex assay
[12] = molecular target: T4, Neuronal acetylcholine receptor subunit alpha-7; assay: Effective concentration against Nicotinic acetylcholine receptor alpha 7

Neuronal acetylcholine receptor subunit alpha-7 (Rattus norvegicus), sequence (Q05941 whole entry): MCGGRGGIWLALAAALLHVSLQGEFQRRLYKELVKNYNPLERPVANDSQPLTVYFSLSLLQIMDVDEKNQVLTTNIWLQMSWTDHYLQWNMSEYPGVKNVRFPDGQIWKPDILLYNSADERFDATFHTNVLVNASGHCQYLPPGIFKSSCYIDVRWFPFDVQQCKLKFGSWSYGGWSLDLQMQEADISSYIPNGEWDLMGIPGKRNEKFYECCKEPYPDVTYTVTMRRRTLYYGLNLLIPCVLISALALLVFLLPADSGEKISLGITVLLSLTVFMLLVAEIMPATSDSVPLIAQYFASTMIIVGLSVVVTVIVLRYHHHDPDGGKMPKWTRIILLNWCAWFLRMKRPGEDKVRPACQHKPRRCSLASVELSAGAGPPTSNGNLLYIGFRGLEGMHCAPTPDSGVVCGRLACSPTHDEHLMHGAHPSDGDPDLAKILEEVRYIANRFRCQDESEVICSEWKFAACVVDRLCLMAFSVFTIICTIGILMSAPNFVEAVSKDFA
T1 sequence (P30926 whole entry): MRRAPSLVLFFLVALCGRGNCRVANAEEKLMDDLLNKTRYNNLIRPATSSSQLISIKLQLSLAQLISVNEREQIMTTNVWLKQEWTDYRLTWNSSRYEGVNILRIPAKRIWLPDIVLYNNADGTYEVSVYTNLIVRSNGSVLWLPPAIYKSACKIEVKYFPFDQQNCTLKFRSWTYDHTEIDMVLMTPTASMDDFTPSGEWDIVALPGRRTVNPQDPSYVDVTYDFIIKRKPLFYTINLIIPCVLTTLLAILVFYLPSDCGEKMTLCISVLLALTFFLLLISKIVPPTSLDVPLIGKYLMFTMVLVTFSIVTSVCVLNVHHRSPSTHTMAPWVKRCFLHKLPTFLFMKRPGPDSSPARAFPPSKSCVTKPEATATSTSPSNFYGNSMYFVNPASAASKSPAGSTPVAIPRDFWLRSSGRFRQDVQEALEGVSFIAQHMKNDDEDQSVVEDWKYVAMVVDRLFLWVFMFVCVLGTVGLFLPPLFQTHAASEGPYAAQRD
T1 sequence (P32297 whole entry): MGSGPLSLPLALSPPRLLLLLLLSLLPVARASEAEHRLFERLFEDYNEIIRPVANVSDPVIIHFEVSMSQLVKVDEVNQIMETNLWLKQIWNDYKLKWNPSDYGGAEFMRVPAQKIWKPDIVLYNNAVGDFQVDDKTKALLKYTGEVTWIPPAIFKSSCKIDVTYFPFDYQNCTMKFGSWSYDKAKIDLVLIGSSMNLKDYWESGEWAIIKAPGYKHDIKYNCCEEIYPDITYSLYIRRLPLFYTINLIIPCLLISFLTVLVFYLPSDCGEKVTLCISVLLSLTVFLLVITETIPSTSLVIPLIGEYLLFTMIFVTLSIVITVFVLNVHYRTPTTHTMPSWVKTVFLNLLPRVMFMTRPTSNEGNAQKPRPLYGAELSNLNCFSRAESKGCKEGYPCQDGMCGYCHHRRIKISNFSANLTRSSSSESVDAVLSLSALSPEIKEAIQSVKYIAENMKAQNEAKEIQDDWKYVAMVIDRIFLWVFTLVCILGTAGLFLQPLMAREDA
T3 sequence (P30926 whole entry): as the sequence (P30926 whole entry) above
T3 sequence (P43681 whole entry): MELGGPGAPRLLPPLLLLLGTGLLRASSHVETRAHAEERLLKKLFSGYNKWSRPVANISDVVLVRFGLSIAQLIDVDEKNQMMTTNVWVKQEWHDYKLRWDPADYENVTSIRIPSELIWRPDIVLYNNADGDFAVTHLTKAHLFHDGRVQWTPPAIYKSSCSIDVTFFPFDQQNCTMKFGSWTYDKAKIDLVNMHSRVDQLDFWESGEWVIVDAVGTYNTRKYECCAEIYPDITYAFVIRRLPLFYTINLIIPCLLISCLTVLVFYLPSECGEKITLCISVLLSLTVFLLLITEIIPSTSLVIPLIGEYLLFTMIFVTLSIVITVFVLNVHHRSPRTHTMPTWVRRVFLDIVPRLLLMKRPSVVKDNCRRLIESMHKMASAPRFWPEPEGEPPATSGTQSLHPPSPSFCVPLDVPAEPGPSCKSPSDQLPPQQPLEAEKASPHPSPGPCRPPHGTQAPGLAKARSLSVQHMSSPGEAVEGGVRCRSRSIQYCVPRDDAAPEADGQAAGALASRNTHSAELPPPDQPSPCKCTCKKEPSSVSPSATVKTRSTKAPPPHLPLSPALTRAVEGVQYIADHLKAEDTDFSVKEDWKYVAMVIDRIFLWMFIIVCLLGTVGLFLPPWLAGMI
T4 sequence (P36544 whole entry): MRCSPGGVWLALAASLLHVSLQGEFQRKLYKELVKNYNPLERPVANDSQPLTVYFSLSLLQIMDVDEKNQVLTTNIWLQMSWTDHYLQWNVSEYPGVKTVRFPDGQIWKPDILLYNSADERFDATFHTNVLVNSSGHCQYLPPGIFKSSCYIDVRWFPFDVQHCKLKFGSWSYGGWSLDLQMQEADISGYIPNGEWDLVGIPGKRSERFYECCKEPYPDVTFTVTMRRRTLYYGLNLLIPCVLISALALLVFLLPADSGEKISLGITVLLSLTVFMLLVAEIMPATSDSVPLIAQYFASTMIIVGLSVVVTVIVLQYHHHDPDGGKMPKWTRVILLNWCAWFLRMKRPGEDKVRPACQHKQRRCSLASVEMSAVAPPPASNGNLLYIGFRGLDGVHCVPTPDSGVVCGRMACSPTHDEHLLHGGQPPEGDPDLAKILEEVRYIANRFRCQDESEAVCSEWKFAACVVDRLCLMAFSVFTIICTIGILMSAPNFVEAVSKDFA
T2 sequence (P17787 whole entry): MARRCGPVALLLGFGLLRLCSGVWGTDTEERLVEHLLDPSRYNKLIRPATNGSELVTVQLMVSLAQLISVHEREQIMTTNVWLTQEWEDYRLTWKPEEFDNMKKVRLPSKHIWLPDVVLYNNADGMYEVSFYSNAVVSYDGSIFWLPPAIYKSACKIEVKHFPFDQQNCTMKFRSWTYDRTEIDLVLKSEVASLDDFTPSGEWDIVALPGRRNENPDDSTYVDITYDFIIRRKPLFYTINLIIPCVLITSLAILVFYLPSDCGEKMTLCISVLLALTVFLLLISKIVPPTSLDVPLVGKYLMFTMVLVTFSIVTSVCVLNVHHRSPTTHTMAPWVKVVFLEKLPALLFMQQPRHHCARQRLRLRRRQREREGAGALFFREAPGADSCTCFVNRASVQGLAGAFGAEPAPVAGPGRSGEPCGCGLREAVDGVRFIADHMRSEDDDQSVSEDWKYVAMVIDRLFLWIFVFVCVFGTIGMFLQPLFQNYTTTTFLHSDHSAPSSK
T2 sequence (P43681 whole entry): as the sequence (P43681 whole entry) above
Neuronal acetylcholine receptor; alpha3/beta2, sequence (P17787 whole entry): as the sequence (P17787 whole entry) above
Neuronal acetylcholine receptor; alpha3/beta2, sequence (P32297 whole entry): as the sequence (P32297 whole entry) above

Compound	Rmax [1] [%]	Rmax [2] [%]	Rmax [3]	also measured
CC(=O)CCN1C[C@@H]2C[C@H](C1)c1cccc(=O)n1C2	11	3	> 100%	–
O=C(NC1CN2CCC1CC2)c1ccc(-c2ccccn2)s1 (stereo unspecified)	–	–	100%	EC50 [4]: > 10000 nM; EC50 [5]: > 10000 nM; EC50 [6]: > 10000 nM
O=c1c(Br)ccc2n1C[C@@H]1CNC[C@H]2C1	–	23	100%	Rmax [7]: 70%
C[C@H](NC(=O)[C@H](Cc1ccccc1)NC(=O)[C@H](CS)NC(=O)[C@@H]1CCCN1C(=O)[C@@H]1CCCN1C(=O)[C@H](Cc1ccc(O)cc1)NC(=O)[C@H](CO)NC(=O)[C@H](CS)NC(=O)[C@H](CS)NC(=O)CN)C(=O)N[C@H](C(=O)N[C@@H](CC(N)=O)C(=O)N[C@@H](CO)C(=O)N[C@@H](CC(=O)O)C(=O)N[C@@H](Cc1ccc(O)cc1)C(=O)N[C@@H](CS)C(N)=O)[C@@H](C)O	–	–	–	IC50 [8]: > 750 nM
c1cncc(OC[C@@H]2CCN2)c1	100	185	100%	–
Fc1ccc(C2CC3CCC2N3)cn1 (stereo unspecified)	40	41	–	Rmax [7]: 131%
CC(C)C[C@H](NC(=O)[C@H](C)NC(=O)[C@H](CS)NC(=O)[C@@H]1CCCN1C(=O)[C@@H]1CCCN1C(=O)[C@H](CC(C)C)NC(=O)[C@H](CO)NC(=O)[C@H](CS)NC(=O)[C@H](CS)NC(=O)CN)C(=O)N[C@@H](CO)C(=O)N[C@@H](CC(N)=O)C(=O)N1CCC[C@H]1C(=O)N[C@@H](CC(=O)O)C(=O)N[C@@H](Cc1ccc(O)cc1)C(=O)N[C@@H](CS)C(N)=O (H-GCCSLPPCALSNPDYC-NH2)	–	–	–	IC50 [9]: 61 nM; IC50 [10]: 61 nM
COc1cc2c(cn1)C1NCCC1CC2 (stereo unspecified)	5	8	–	Rmax [11]: 22%; Rmax [7]: 44%; EC50 [12]: > 300000 nM
CC(NC(C)(C)C)C(=O)c1cccc(Cl)c1 (stereo unspecified) [BUPROPION]	–	–	–	IC50 [10]: 50000 nM
Clc1ccc(OC[C@H]2CCN2)cn1	116	–	–	–
O=c1c(I)ccc2n1C[C@@H]1CNC[C@H]2C1	–	47	107%	Rmax [7]: 105%
c1cncc(C2CC3CCC2N3)c1 (stereo unspecified)	61	112	–	Rmax [7]: 147%
Clc1ccc(OC[C@@H]2CCN2)cn1	166	161	85%	–
CSCC[C@H](NC(=O)[C@H](CC(N)=O)NC(=O)[C@H](CS)NC(=O)[C@@H]1CCCN1C(=O)[C@H](CCCNC(=N)N)NC(=O)[C@H](CC(=O)O)NC(=O)[C@H](CO)NC(=O)[C@H](CS)NC(=O)[C@H](CS)NC(=O)CN)C(=O)N[C@@H](CC(N)=O)C(=O)N[C@@H](CC(N)=O)C(=O)N1CCC[C@H]1C(=O)N[C@@H](CC(=O)O)C(=O)N[C@@H](Cc1ccc(O)cc1)C(=O)N[C@@H](CS)C(N)=O (H-GCCSDRPCNMNNPDYC-NH2)	–	–	–	IC50 [9]: 30 nM; IC50 [8]: 30 nM; IC50 [10]: 30 nM
C[C@H](NC(=O)[C@H](Cc1ccccc1)NC(=O)[C@H](CS)NC(=O)[C@@H]1CCCN1C(=O)[C@@H]1CCCN1C(=O)[C@H](Cc1ccc(O)cc1)NC(=O)[C@H](CO)NC(=O)[C@H](CS)NC(=O)[C@H](CS)NC(=O)CN)C(=O)N[C@H](C(=O)N[C@@H](CC(N)=O)C(=O)N[C@@H](CO)C(=O)NCC(=O)N[C@@H](Cc1ccc(O)cc1)C(=O)N[C@@H](CS)C(N)=O)[C@@H](C)O	–	–	–	IC50 [8]: > 750 nM
H-AGGSDRRCRWR-NH2	–	–	–	IC50 [10]: 441 nM
C[N+](C)(C)CCO	–	–	90% and 100%	–
CN(C)c1ccc(/C=C/C=C2\CCCN=C2c2cccnc2)cc1	–	0	76%	–
CCOc1cncc(/C=C/CCN)c1	55	–	–	Rmax [7]: 16%
Cc1ncccc1OC[C@@H]1CCN1	< 15	–	> 1000%	–
O=C(NC1CN2CCC1CC2)c1ccc(-c2ccsc2)s1 (stereo unspecified)	–	–	100%	EC50 [4]: > 10000 nM; EC50 [5]: > 10000 nM; EC50 [6]: > 10000 nM
COc1ccc(/C=C2\CCCN=C2c2cccnc2)c(OC)c1 [GTS-21]	–	0	23% and 28%	EC50 [4]: > 10000 nM; EC50 [5]: > 10000 nM; EC50 [6]: > 10000 nM
